Columns and labels:
[1] = molecular target: T1, F508del CFTR (Homo sapiens, UniProt P13569, DEL508-508); test: CoPo (corrector plus potentiator) equivalent current assay in primary CF airway epithelial cells, test compound added back as potentiator, no VX-770; format: cell-based; design: key: +++: NAUC>70% of positive control; ++: NAUC 70-40% of positive control; +: NAUC<40% of positive control; O: no positive response; conditions: CoPo as % of positive control (VX-809 + acute VX-770)
T1 construct: Primary CF airway epithelial cells were obtained from the UNC Cystic Fibrosis Tissue Procurement and Cell Culture Core; host or cells: primary CF airway epithelial cells
Method: It was noticed that many of the test compounds had potentiator activity in addition to corrector activity. These compounds have been denoted as CoPos by FDL and others. To measure both the corrector and potentiator activity of a compound the following changes were made to the test conditions. Cells were treated as usual with the test compounds for at least 24 hours before the experiment. 30 minutes prior to the experiment the test compound is added back to the testing solution to act as a potentiator and no VX-770 (the standard CFTR potentiator) was used with the test compound. The negative control was no longer just DMSO (no corrector) but changed to VX-809 (the standard corrector) plus VX-770 treatment for at least 24 hours. 30 minutes prior to the experiment both VX-809 and VX-770 were added back to the testing solution. This treatment led to a smaller response than the positive control of correcting F508del CFTR with VX-809 alone for at least 24 hours and adding VX-770 acutely with the forskolin addition (just as in the corrector assay).
A CoPo reading of zero means that the test compound has the same forskolin stimulated response as VX-809+VX-770 treatment for 24 hours. A CoPo reading of 1.0 means the test compound has the same forskolin response as cell treated with VX-809 and stimulated with forskolin+VX-770. CoPo activity “+++” refers to an observed CoPo>70% of positive control; CoPo activity “++” refers to an observed CoPo 70-40% of positive control; CoPo activity “+” refers to an observed CoPo<40% of positive control and “O” refers to no positive response.

[2] = molecular target: T1, F508del CFTR; test: Equivalent current assay in primary CF airway epithelial cells (Corrector Activity, NAUC normalized to 3 μM VX809); format: cell-based; conditions: NAUC as % of positive control (VX-809)
How it was run: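 Readout is NAUC: current area from forskolin/potentiator addition until CFTR-172, minus vehicle, relative to 3 μM VX809 (=1.0). Cells were primary CF epithelia at air-liquid interface ≥4 weeks, given basolateral compound for 24 h at 37° C; median of n≥4 replicates, sigmoid fit with nH fixed at 1.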

T1 sequence (P13569 with tags, fused parts or gaps DEL508-508): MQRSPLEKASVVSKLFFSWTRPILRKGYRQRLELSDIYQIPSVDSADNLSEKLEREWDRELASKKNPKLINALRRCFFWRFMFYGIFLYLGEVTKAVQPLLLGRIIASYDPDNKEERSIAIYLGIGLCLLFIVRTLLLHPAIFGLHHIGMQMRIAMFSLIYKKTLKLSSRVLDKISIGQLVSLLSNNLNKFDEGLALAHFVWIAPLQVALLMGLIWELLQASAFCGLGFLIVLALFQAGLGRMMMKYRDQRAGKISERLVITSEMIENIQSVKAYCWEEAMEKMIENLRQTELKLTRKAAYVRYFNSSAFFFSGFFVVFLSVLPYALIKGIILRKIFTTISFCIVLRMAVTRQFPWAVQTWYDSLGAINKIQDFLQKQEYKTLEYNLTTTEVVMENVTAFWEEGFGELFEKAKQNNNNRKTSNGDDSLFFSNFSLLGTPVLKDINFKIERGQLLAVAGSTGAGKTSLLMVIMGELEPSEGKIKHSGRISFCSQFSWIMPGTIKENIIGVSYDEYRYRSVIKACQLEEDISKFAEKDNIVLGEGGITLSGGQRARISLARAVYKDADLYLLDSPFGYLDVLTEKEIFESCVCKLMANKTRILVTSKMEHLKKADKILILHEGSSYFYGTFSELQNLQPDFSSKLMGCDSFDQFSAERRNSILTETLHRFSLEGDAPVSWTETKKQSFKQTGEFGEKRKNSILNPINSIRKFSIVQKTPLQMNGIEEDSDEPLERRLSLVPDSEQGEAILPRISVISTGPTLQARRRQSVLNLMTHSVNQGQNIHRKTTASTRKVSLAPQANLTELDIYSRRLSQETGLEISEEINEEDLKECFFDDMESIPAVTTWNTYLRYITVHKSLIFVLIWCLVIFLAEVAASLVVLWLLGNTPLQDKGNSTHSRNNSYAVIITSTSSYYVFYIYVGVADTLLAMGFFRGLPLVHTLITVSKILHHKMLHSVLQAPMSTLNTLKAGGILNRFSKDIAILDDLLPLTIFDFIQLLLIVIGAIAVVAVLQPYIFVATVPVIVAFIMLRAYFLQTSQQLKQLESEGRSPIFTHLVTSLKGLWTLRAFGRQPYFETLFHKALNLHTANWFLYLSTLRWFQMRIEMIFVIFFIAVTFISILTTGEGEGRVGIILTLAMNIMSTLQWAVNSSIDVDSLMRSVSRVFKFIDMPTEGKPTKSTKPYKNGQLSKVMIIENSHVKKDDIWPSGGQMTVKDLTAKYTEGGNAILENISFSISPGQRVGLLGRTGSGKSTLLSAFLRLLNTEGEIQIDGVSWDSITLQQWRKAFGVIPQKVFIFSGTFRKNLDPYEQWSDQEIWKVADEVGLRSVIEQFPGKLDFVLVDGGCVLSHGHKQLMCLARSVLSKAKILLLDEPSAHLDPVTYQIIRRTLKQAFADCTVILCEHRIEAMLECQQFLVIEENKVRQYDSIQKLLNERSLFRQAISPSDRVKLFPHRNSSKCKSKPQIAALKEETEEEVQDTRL

Row | Compound | CoPo Activity [1] | Corr Activity (NAUC) [2]
1 | CN(C(=O)Cn1nc(-c2cccc(F)c2)c2occc2c1=O)c1ccc2c(c1)OC(F)(F)O2 [Example 8] | ++ (CoPo 70-40% of positive control) | +++ (NAUC>70% of positive control)
2 | CN(C(=O)Cn1nc(-c2cccc(Cl)c2)c2occc2c1=O)c1ccc2c(c1)OC(F)(F)O2 [Example 9] | +++ (CoPo>70% of positive control) | +++ (NAUC>70% of positive control)
3 | CCN(C(=O)Cn1nc(-c2cccc(C#N)c2)c2occc2c1=O)c1ccc2c(c1)OC(F)(F)O2 [Example 10] | +++ (CoPo>70% of positive control) | +++ (NAUC>70% of positive control)
4 | CN(C(=O)Cn1nc(-c2cccc(C#N)c2)c2occc2c1=O)c1ccc2c(c1)OC(F)(F)O2 [Example 11] | +++ (CoPo>70% of positive control) | +++ (NAUC>70% of positive control)
5 | CCN(C(=O)Cn1nc(-c2cccc(C#N)c2)c2occc2c1=O)c1ccc2c(c1)CCC2 [Example 12] | +++ (CoPo>70% of positive control) | +++ (NAUC>70% of positive control)
6 | CN(C(=O)Cn1nc(-c2cccc(F)c2)c2nc[nH]c2c1=O)c1ccc2c(c1)OC(F)(F)O2 [Example 21] | O | + (NAUC<40% of positive control)
7 | CN(C(=O)Cn1nc(-c2cccc(Cl)c2)c2[nH]cnc2c1=O)c1ccc2c(c1)OC(F)(F)O2 [Example 22] | O | ++ (NAUC 70-40% of positive control)
8 | CN(C(=O)Cn1nc(-c2cccc(C#N)c2)c2[nH]cnc2c1=O)c1ccc2c(c1)OC(F)(F)O2 [Example 23] | + (CoPo<40% of positive control) | + (NAUC<40% of positive control)
9 | CCN(C(=O)Cn1nc(-c2cccc(C#N)c2)c2[nH]cnc2c1=O)c1ccc2c(c1)OC(F)(F)O2 [Example 24] | +++ (CoPo>70% of positive control) | +++ (NAUC>70% of positive control)
10 | CCN(C(=O)Cn1nc(-c2cccc(F)c2)c2[nH]cnc2c1=O)c1ccc2c(c1)OC(F)(F)O2 [Example 25] | + (CoPo<40% of positive control) | +++ (NAUC>70% of positive control)
11 | CN(C(=O)Cn1nc(-c2cccc(F)c2)c2c(c1=O)CCO2)c1ccc2c(c1)OC(F)(F)O2 [Example 160] | + (CoPo<40% of positive control) | ++ (NAUC 70-40% of positive control)
12 | CCN(C(=O)Cn1nc(-c2cccc(F)c2)c2c(c1=O)CCO2)c1ccc2c(c1)OC(F)(F)O2 [Example 161] | ++ (CoPo 70-40% of positive control) | +++ (NAUC>70% of positive control)
13 | N#Cc1cc(-c2nn(CC(=O)N(c3ccc4c(c3)OC(F)(F)O4)C3CC3)c(=O)c3nc[nH]c23)ccc1N1CCCCC1 [Example 491] |  | ++ (NAUC 70-40% of positive control)
14 | CCN(C(=O)Cn1nc(-c2cccc(C#N)c2)c2[nH]ncc2c1=O)c1ccc2c(c1)OC(F)(F)O2 [Example 492, 2-(7-(3-cyanophenyl)-4-oxo-1,4-dihydro-5H-pyrazolo[3,4-d]pyridazin-5-yl)-N-(2,2-difluorobenzo[d][1,3]dioxol-5-yl)-N-ethylacetamide] |  | ++ (NAUC 70-40% of positive control)
15 | CCN(C(=O)Cn1nc(-c2cccc(C#N)c2)c2cn[nH]c2c1=O)c1ccc2c(c1)OC(F)(F)O2 [Example 493, 2-(4-(3-cyanophenyl)-7-oxo-1,7-dihydro-6H-pyrazolo[3,4-d]pyridazin-6-yl)-N-(2,2-difluorobenzo[d][1,3]dioxol-5-yl)-N-ethylacetamide] |  | ++ (NAUC 70-40% of positive control)
16 | CN(C(=O)Cn1nc(-c2cccc(C#N)c2)c2cn[nH]c2c1=O)c1ccc2c(c1)OC(F)(F)O2 [Example 494] |  | ++ (NAUC 70-40% of positive control)
17 | CCN(C(=O)Cn1nc(-c2cccc(F)c2)c2cn[nH]c2c1=O)c1ccc2c(c1)OC(F)(F)O2 [Example 495] |  | ++ (NAUC 70-40% of positive control)
18 | CCN(C(=O)Cn1nc(-c2cccc(Cl)c2)c2cn[nH]c2c1=O)c1ccc2c(c1)OC(F)(F)O2 [Example 496] |  | ++ (NAUC 70-40% of positive control)
19 | CN(C(=O)Cn1nc(-c2cccc(F)c2)c2cn[nH]c2c1=O)c1ccc2c(c1)OC(F)(F)O2 [Example 497] |  | + (NAUC<40% of positive control)
20 | CN(C(=O)Cn1nc(-c2cccc(Cl)c2)c2cn[nH]c2c1=O)c1ccc2c(c1)OC(F)(F)O2 [Example 498] |  | + (NAUC<40% of positive control)
21 | CCN(C(=O)Cn1nc(-c2cccc(F)c2)c2[nH]ncc2c1=O)c1ccc2c(c1)OC(F)(F)O2 [Example 499] |  | + (NAUC<40% of positive control)
22 | CCN(C(=O)Cn1nc(-c2cccc(Cl)c2)c2[nH]ncc2c1=O)c1ccc2c(c1)OC(F)(F)O2 [Example 500] |  | ++ (NAUC 70-40% of positive control)
23 | CCN(C(=O)Cn1nc(-c2cccc(F)c2)c2[nH]ccc2c1=O)c1ccc2c(c1)OC(F)(F)O2 [Example 501, N-(2,2-difluorobenzo[d][1,3]dioxol-5-yl)-N-ethyl-2-(7-(3-fluorophenyl)-4-oxo-1,4-dihydro-5H-pyrrolo[2,3-d]pyridazin-5-yl)acetamide] |  | +++ (NAUC>70% of positive control)
24 | CCN(C(=O)Cn1nc(-c2cccc(Cl)c2)c2[nH]ccc2c1=O)c1ccc2c(c1)OC(F)(F)O2 [Example 502] |  | +++ (NAUC>70% of positive control)
25 | CCN(C(=O)Cn1nc(-c2cccc(C#N)c2)c2[nH]ccc2c1=O)c1ccc2c(c1)OC(F)(F)O2 [Example 503] |  | +++ (NAUC>70% of positive control)
